Assay results from article PMC7409168, “The Multidrug Resistance-Reversing Activity of a Novel Antimicrobial Peptide” (Cancers, 2020).
Read-outs that look alike come from different tables or passages of the source. Residues, ends and D or L forms follow the SMILES beside them.

Columns and labels:
[1] = tested on: KB-3-1; experiment: MTT cytotoxicity of ABCB1 substrates with or without a reversal agent, KB-3-1; type: cell-based, human; settings: no reversal agent; for IC50: mean ± SD, at least three independent experiments in triplicate, read-out: IC50 of the anticancer drug alone; for RF (resistant fold) of the anticancer drug alone: IC50 relative to drug alone in KB-3-1
Description: (§1) The drug-selected ABCG2-overexpressing non-small cell lung cancer (NSCLC) cell line NCI-H460/MX20 and its parental NCI-H460 cell line, and the ABCB1 gene-transfected HEK293 cells, HEK293/ABCB1, and its parental empty vector transfected HEK293 cells, HEK293/pcDNA3.1 were provided by Drs. Susan E. Bates and Robert Robey (NIH, MD). The drug-resistant ABCB1 overexpressing human epidermal carcinoma cell line KB-C2 and its parental KB-3-1 cell line were generously provided by Dr. Shin-Ichi Akiyama (Kagoshima University, Kagoshima, Japan). All cell lines were cultured in complete Dulbecco’s modified Eagle’s medium(DMEM) (Hyclone, GE Healthcare Life Sciences, Pittsburgh, PA, USA) with the addition of 10% fetal bovine serum (FBS) and 1% penicillin/streptomycin (Hyclone, GE Healthcare Life Sciences, Pittsburgh, PA, USA). The transfected cell lines were selected in complete medium with addition of 2 mg/mL of Geneticin (Enzo Life Sciences, Farmingdale, NY, USA) for selection, KB-C2 cells were continually treated with complete medium and […], and NCI-H460/MX20 cells were cultured with 20 ng/mL mitoxantrone added to the complete medium. All drug-treated cell lines were recovered for more than 2 weeks without treatment before their use. The culture condition was in a humidified incubator at 37 °C with 5% CO2.
(§2) The final absorbance of each well was measured by Microplate Spectrophotometer (Fisher Sci., Fair Lawn, NJ, USA) at 570 nm.

[2] = tested on: NCI-H460/MX20; experiment: MTT cytotoxicity of ABCG2 substrates with or without a reversal agent, NCI-H460/MX20; type: cell-based, human; settings: for IC50: NCI-H460/MX20, mean ± SD, at least three independent experiments in triplicate, read-out: IC50 of the anticancer drug alone; for IC50 / RF (resistant fold) of the anticancer drug alone: no reversal agent
Description: as §1, §2

[3] = tested on: KB-C2; experiment: MTT cytotoxicity of ABCB1 substrates with or without a reversal agent, KB-C2; settings: for RF (resistant fold) of the anticancer drug alone: IC50 in KB-C2 divided by IC50 in KB-3-1
Description: as §1, §2

[4] = tested on: HEK293/pcDNA3.1; experiment: MTT cytotoxicity of ABCB1 substrates with or without a reversal agent, HEK293/pcDNA3.1; type: cell-based; settings: no reversal agent; for IC50: mean ± SD, at least three independent experiments in triplicate, read-out: IC50 of the anticancer drug alone; for RF (resistant fold) of the anticancer drug alone: relative to drug alone in HEK293/pcDNA3.1
Description: as §1, §2

[5] = tested on: NCI-H460; experiment: MTT cytotoxicity of ABCG2 substrates with or without a reversal agent, NCI-H460; type: cell-based, human; settings: for IC50 / RF (resistant fold) of the anticancer drug alone: no reversal agent; for IC50: mean ± SD, at least three independent experiments in triplicate, read-out: IC50 of the anticancer drug alone; for RF (resistant fold) of the anticancer drug alone: relative to drug alone in NCI-H460
Description: as §1, §2

[6] = tested on: HEK293/ABCB1; experiment: MTT cytotoxicity of ABCB1 substrates with or without a reversal agent, HEK293/ABCB1; type: cell-based; settings: no reversal agent; for IC50: HEK293/ABCB1, mean ± SD, at least three independent experiments in triplicate, read-out: IC50 of the anticancer drug alone; for RF (resistant fold) of the anticancer drug alone: IC50 in HEK293/ABCB1 divided by IC50 in HEK293/pcDNA3.1
Description: as §1, §2

[7] = in vitro; settings: human
Description: as §1, §2

[8] = tested on: parental cells NCI-H460; settings: read-out: IC50 of peptide, MTT, 570 nm, at least three independent experiments in triplicate
Description: as §1, §2

[9] = tested on: parental cells (KB-3-1); settings: read-out: IC50 of peptide; KB-3-1 (parental); MTT, 570 nm; at least three independent triplicate experiments
Description: as §1, §2

[10] = target: T1, ABCB1 (Homo sapiens, UniProt P08183); settings: XH-14C 0–40 μM; vanadate-sensitive; phosphate read at 800 nm; three independent experiments
T1 sequence (P08183 whole entry): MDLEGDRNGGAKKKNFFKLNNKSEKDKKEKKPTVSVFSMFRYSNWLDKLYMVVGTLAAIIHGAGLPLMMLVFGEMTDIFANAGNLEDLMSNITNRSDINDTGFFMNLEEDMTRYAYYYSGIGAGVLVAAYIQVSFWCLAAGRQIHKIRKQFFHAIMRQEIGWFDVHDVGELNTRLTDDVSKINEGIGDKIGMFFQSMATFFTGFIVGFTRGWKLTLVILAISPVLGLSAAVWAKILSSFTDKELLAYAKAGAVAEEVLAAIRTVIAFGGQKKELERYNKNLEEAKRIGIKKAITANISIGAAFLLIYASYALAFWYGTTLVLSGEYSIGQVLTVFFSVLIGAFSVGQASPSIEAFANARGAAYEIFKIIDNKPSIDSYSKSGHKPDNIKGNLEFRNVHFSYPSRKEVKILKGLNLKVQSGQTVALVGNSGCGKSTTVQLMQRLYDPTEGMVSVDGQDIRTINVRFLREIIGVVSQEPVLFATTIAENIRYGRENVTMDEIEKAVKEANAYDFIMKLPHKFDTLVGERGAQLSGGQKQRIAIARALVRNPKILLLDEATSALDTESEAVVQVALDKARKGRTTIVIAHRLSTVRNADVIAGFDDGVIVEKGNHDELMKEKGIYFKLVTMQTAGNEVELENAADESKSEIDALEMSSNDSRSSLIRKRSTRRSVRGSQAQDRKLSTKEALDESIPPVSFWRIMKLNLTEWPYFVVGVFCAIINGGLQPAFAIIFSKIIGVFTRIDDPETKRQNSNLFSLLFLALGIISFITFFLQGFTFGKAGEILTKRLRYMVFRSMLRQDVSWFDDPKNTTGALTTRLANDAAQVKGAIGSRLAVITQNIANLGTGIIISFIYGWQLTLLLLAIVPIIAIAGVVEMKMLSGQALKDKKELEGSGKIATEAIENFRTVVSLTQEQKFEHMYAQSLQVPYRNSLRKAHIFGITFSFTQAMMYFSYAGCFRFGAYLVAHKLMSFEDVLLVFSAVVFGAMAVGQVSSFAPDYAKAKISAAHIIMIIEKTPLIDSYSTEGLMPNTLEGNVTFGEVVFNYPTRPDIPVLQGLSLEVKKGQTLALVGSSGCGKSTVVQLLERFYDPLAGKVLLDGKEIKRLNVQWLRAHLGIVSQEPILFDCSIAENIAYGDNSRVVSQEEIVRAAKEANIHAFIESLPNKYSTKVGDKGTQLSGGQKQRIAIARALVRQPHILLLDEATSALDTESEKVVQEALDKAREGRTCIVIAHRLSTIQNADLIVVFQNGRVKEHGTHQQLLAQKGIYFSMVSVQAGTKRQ
Description: The vanadate-sensitive membrane vesicles ABCB1 and ABCG2 ATPase activity were determined as previously described, and the ABCB1- and ABCG2-overexpressing cell membranes were purchased from BD Biosciences (San Jose, CA, USA). The ATPase activities were calculated based on the measurement of inorganic phosphate (IP)detected using a spectrophotometer at 800 nm.

[11] = tested on: KB-3-1 cells; experiment: [3H]-paclitaxel efflux assay in KB-3-1; type: cell-based, human; settings: 2 h, with or without a reversal agent
Description: (§3) [^3H]-paclitaxel (31 Ci/mmol, Moravek Biochemicals, Brea, CA, USA) was used to measure the drug accumulation and efflux as previously described. The only difference is that after the cells were seeded evenly in 24-well plate, the cells were incubated in the presence or absence of XH-14C and a parallel positive reversal agent for […]. Liquid scintillation cocktail used to measure the radioactivity was purchased from MP Biomedicals, Inc (St. Ana, CA, USA) and the radioactivity of different groups were read with the Packard TRI-CARB1 190‘A liquid scintillation analyzer. A parallel well of cells for each group was set up for cell number counting at the end of the assay for the purpose of data normalization.

[12] = tested on: ABCB1-overexpressing KB-C2 cells; type: cell-based, human
Description: as §3

[13] = tested on: ABCB1 on KB-C2 cells; type: cell-based, human
Description: as §3

[14] = target: T1, ABCB1; set-up: purchased BD Biosciences (San Jose, CA, USA); method as in PMID 25456855; settings: non-competitive inhibitor; cited from earlier work
[15] = Homo sapiens, KB-C2, read-out: IC50 of the anticancer drug alone
[16] = IC50 in NCI-H460/MX20 divided by IC50 in NCI-H460
[17] = KB-C2 cells (ABCB1-overexpressing human epidermal carcinoma)
[18] = NCI-H460/MX20 cells (ABCG2-overexpressing NSCLC)

N.N.[Cl][Pt][Cl] [Cisplatin, cisplatin]
IC50 [1]: 1.64 ± 0.487 µM
IC50 [2]: 3.15 ± 0.47 µM
IC50 ([3]; read-out: IC50 of the anticancer drug alone, KB-C2, no reversal agent, mean ± SD, at least three independent experiments in triplicate): 1.76 ± 0.377 µM
IC50 [4]: 2.27 ± 0.489 µM
IC50 [5]: 2.76 ± 0.23 µM

COc1cccc2c1C(=O)c1c(O)c3c(c(O)c1C2=O)C[C@@](O)(C(=O)CO)C[C@@H]3O[C@H]1C[C@H](N)[C@H](O)[C@H](C)O1 [Doxorubicin, doxorubicin]
IC50 ([1]; Homo sapiens): 1.28 ± 0.189 µM
RF (resistant fold) of the anticancer drug alone [1]: 1.00
IC50 [6]: 32.6 ± 4.81 µM
RF (resistant fold) of the anticancer drug alone [6]: 26.6
IC50 [3, 15]: 67.6 ± 2.46 µM
RF (resistant fold) of the anticancer drug alone ([3]; no reversal agent): 53.0
IC50 ([4]; Homo sapiens): 1.226 ± 0.00188 µM
RF (resistant fold) of the anticancer drug alone [4]: 1.00

COc1ccc2c3c([nH]c2c1)[C@H](CC(C)C)N1C(=O)[C@H](CCC(=O)OC(C)(C)C)NC(=O)[C@@H]1C3 [Ko143]
RF of cisplatin in combination with reversal agent ([2]; cisplatin + reversal agent 3 μM, IC50 in NCI-H460/MX20 divided by IC50 in NCI-H460): 1.23
RF of mitoxantrone in combination with reversal agent ([2]; mitoxantrone + reversal agent 3 μM, IC50 in NCI-H460/MX20 divided by IC50 in NCI-H460): 2.28
RF of topotecan in combination with reversal agent ([2]; topotecan + reversal agent 3 μM, IC50 in NCI-H460/MX20 divided by IC50 in NCI-H460): 1.96
RF of cisplatin in combination with reversal agent ([5]; cisplatin + reversal agent 3 μM, relative to NCI-H460): 1.26
RF of mitoxantrone in combination with reversal agent ([5]; mitoxantrone + reversal agent 3 μM, relative to NCI-H460): 1.10
RF of topotecan in combination with reversal agent ([5]; topotecan + reversal agent 3 μM, relative to NCI-H460): 0.76

O=C1c2c(O)ccc(O)c2C(=O)c2c(NCCNCCO)ccc(NCCNCCO)c21 [Mitoxantrone, mitoxantrone]
IC50 ([2]; Homo sapiens): 36.6 ± 4.53 µM
RF (resistant fold) of the anticancer drug alone [2, 16]: 937
IC50 ([5]; Homo sapiens): 0.039 ± 0.005 µM
RF (resistant fold) of the anticancer drug alone [5]: 1.00

CC(=O)O[C@H]1C(=O)[C@@]2(C)[C@H]([C@H](OC(=O)c3ccccc3)[C@]3(O)C[C@H](OC(=O)[C@H](O)[C@@H](NC(=O)c4ccccc4)c4ccccc4)C(C)=C1C3(C)C)[C@]1(OC(C)=O)CO[C@@H]1C[C@@H]2O [Paclitaxel, paclitaxel]
IC50 ([1]; Homo sapiens): 0.003 ± 0.0005 µM
RF (resistant fold) of the anticancer drug alone [1]: 1.00
IC50 [6]: 0.306 ± 0.0454 µM
RF (resistant fold) of the anticancer drug alone [6]: 21.38
IC50 [3, 15]: 1.31 ± 0.271 µM
RF (resistant fold) of the anticancer drug alone ([3]; no reversal agent): 437
IC50 ([4]; Homo sapiens): 0.0143 ± 0.00153 µM
RF (resistant fold) of the anticancer drug alone [4]: 1.00

CC[C@@]1(O)C(=O)OCc2c1cc1n(c2=O)Cc2cc3c(CN(C)C)c(O)ccc3nc2-1 [Topotecan, topotecan]
IC50 ([2]; Homo sapiens): 39.2 ± 4.85 µM
RF (resistant fold) of the anticancer drug alone [2, 16]: 799
IC50 ([5]; Homo sapiens): 0.049 ± 0.006 µM
RF (resistant fold) of the anticancer drug alone [5]: 1.00

CC[C@H](C)[C@H](NC(=O)[C@H](CCCNC(=N)N)NC(=O)[C@H](CCCCN)NC(=O)[C@@H](NC(=O)[C@@H](N)Cc1ccccc1)[C@@H](C)CC)C(=O)N[C@@H](C)C(=O)N[C@@H](CCCNC(=N)N)C(=O)N[C@@H](CC(C)C)C(=O)N[C@@H](CC(C)C)C(=O)N[C@@H](CCCNC(=N)N)C(=O)N[C@@H](CCCCN)C(=O)N[C@H](C(=O)N[C@@H](CCCCN)C(=O)N[C@@H](CCCNC(=N)N)C(=O)O)[C@@H](C)CC [XH-14A] (H-FIKRIARLLRKIKR-OH)
IC50 [7, 17]: 22.4 µM
IC50 [7, 18]: 8.22 µM
IC50 [8]: 10.1 µM
IC50 [9]: 8.73 µM

CC[C@H](C)[C@H](NC(=O)[C@H](CCCNC(=N)N)NC(=O)[C@H](CCCCN)NC(=O)[C@@H](NC(=O)[C@@H](N)Cc1ccccc1)[C@@H](C)CC)C(=O)N[C@@H](C)C(=O)N[C@@H](CCCNC(=N)N)C(=O)N[C@@H](CC(C)C)C(=O)N[C@@H](CC(C)C)C(=O)N[C@@H](CCCNC(=N)N)C(=O)N[C@@H](CCCCN)C(=O)N[C@H](C(=O)N[C@@H](Cc1ccccc1)C(=O)N[C@@H](CCCNC(=N)N)C(=O)O)[C@@H](C)CC [XH-14B] (H-FIKRIARLLRKIFR-OH)
IC50 [7, 17]: 8.38 µM
IC50 [7, 18]: 7.28 µM
IC50 [8]: 9.37 µM
IC50 [9]: 10 µM

CC[C@H](C)[C@H](NC(=O)[C@H](CCCNC(=N)N)NC(=O)[C@H](CCCCN)NC(=O)[C@@H](NC(=O)[C@@H](N)Cc1ccccc1)[C@@H](C)CC)C(=O)N[C@@H](C)C(=O)N[C@@H](CCCNC(=N)N)C(=O)N[C@@H](CC(C)C)C(=O)N[C@@H](CC(C)C)C(=O)N[C@@H](CCCNC(=N)N)C(=O)N[C@@H](CCCCN)C(=O)N[C@H](C(=O)N[C@@H](Cc1c[nH]c2ccccc12)C(=O)N[C@@H](CCCNC(=N)N)C(=O)O)[C@@H](C)CC [XH-14C] (H-FIKRIARLLRKIWR-OH)
effect on cytotoxicity of cisplatin ([3]; non-substrate of ABCB1, all tested cell lines): no effect on the cytotoxicity of cisplatin
maximal stimulation of ABCB1 ATPase activity [10]: 3.28 fold
IC50 [7, 17]: 7.82 µM
IC50 [7, 18]: 8.3 µM
IC50 [8]: 9.07 µM
IC50 [9]: 8.12 µM

CC(=O)O[C@H]1C(=O)[C@@]2(C)[C@H]([C@H](OC(=O)c3ccccc3)[C@]3(O)C[C@H](OC(=O)[C@H](O)[C@@H](NC(=O)c4ccccc4)c4ccccc4)C(C)=C1C3(C)C)[C@]1(OC(C)=O)CO[C@@H]1C[C@@H]2O [[^3H]-paclitaxel]
change of cellular [3H]-paclitaxel in KB-3-1 [11]: did not significantly change
intracellular [3H]-paclitaxel in KB-C2, fold lower than in KB-3-1 [12]: more than 100 fold
decrease in intracellular [3H]-paclitaxel (efflux) without XH-14C [13]: about 50%

COc1cc2c(cc1OC)CN(CCc1ccc(NC(=O)c3cc(OC)c(OC)cc3NC(=O)c3cnc4ccccc4c3)cc1)CC2 [tariquidar]
ABCB1 ATPase stimulation [14]: able to stimulate ABCB1 ATPase activity
